Source: US5731286A, “Cyclic neurokinin A antagonists” (Merrell Pharmaceuticals, Inc., priority 1997, dated 1998)

Tested on: rat urinary bladder
Test: In situ rat urinary bladder preparation, NKA-induced bladder contraction
Type: in vivo
Protocol: FIG. 6. […] Continuous tracing shown for each animal.
Rats, (female Sprague-Dawley, 150-200 g) were anesthetized with ketamine HCl (100 mg/kg i.p.) supplemented with urethane (1.2 g/kg i.p.). […] A needle was inserted into the apex of the bladder dome and saline was perfused through the bladder at a rate of 100 μl per minute. Bladder outflow was collected via a polyethylene cannula inserted into the urethra. Bladder contractions were monitored through a flow pressure transducer connected in series with the perfusion system. Test compounds were applied onto the bladder dome in 40-100 μl of saline or saline containing a minimum of DMSO. […] Antagonist was similarly applied onto the bladder 5 min before a repeated application of NKA. […] Amplitude (force) of contraction and 1-min time intervals were recorded continuously for each animal.

## neurokinin A [NKA]
Anesthetized rats, 10 μg topical
  Effect on bladder contraction when applied onto the dome of the exposed bladder: sustained tonic contraction and an increase in frequency
Applied onto bladder dome, anesthetized rats
  Threshold concentration for contraction: approximately 10 μg
Repeated application of 10 μg
  Tachyphylaxis on repeated application: did not result in any tachyphylaxis
